Reference: publication PMC6099558, “N-oxide alkaloids from Crinum amabile (Amaryllidaceae)” (Molecules : A Journal of Synthetic Chemistry and Natural …, 2018)
In brackets after ≈: the same amount, converted by molar mass. Where two headings read alike, the source gives them in different places.

How the values were obtained:
[1] = tested on: Trypanosoma brucei rhodesiense (trypomastigotes forms, STIB 900 strain); experiment: In vitro antiprotozoal activity against T. brucei rhodesiense; format: cell-based; conditions: read-out: T. brucei rhodesiense IC50
Description: (§1) In vitro tests for the biological activity of the alkaloids isolated from C. amabile against Trypanosoma brucei rhodesiense (trypomastigotes forms, STIB 900 strain), Trypanosoma cruzi (axenic grown amastigotes forms, Tulahuen C4 strain), Leishmania donovani (amastigotes forms, MHOM-ET-67/L82 strain), and Plasmodium falciparum (intraerythrocytic forms, IEF, NF54 strain) and a cytotoxicity test against the mammalian L6 cell line from rat skeletal myoblasts were carried out at the Swiss Tropical and Public Health Institute (Swiss TPH, Basel, Switzerland) according to established protocols as described by Orhan and co-workers. The reference drugs used in these assays were melarsoprol, benznidazole, miltefosine, chloroquine and podophyllotoxin, respectively.

[2] = tested on: Trypanosoma cruzi (axenic grown amastigotes forms, Tulahuen C4 strain); experiment: In vitro antiprotozoal activity against T. cruzi; format: cell-based; conditions: read-out: T. cruzi IC50
Description: as §1

[3] = tested on: Leishmania donovani (amastigotes forms, MHOM-ET-67/L82 strain); experiment: In vitro antiprotozoal activity against L. donovani; format: cell-based; conditions: read-out: L. donovani IC50
Description: as §1

[4] = tested on: chloroquine-sensitive strain of Plasmodium falciparum; parameters: method as in PMID 8229016; conditions: read-out: IC50 against chloroquine-sensitive strain of Plasmodium falciparum; cited from earlier work
[5] = Cytotoxicity test against mammalian L6 cell line; format: cell-based; conditions: L6 cells (rat skeletal myoblasts)
Description: as §1

[6] = tested on: Plasmodium falciparum (intraerythrocytic forms, IEF, NF54 strain); experiment: In vitro antiprotozoal activity against P. falciparum NF54; format: cell-based
Description: as §1

[7] = tested on: chloroquine-resistant strain of Plasmodium falciparum; conditions: read-out: IC50 against chloroquine-resistant strain of Plasmodium falciparum; cited from earlier work
[8] = biological target: AChE (Electrophorus electricus, UniProt O42275); experiment: Acetylcholinesterase inhibitory activity (Ellman method, modified); format: biochemical
Description: (§2) Cholinesterase inhibitory activities were analyzed as by Ellman and co-workers with some modifications as by López and co-workers. Fifty microliters of AChE or BuChE phosphate buffer (8m M K2HPO4, 2.3 mM NaH2PO4, 0.15 M NaCl, pH 7.5) and 50 μL of the sample dissolved in the same buffer were added to the wells. The plates were incubated for 30 min at room temperature before 100 μL of the substrate solution (0.1 M Na2HPO4, […], and 0.6 mM acetylthiocholine iodide, ATCI, or 0.24 mM butyrylthiocholine iodide, BTCI, in Millipore water, pH 7.5) was added. The absorbance was read in a Labsystem microplate reader (Helsinki, Finland) at 405 nm after 10 min. […] In a first step, samples were assessed at 10, 100 and 200 µg mL^−1 towards both enzymes. […] Enzyme activity was calculated as a percentage compared to an assay using a buffer without any inhibitor. The cholinesterase inhibitory data were analyzed with the software Microsoft Office Excel 2010.

[9] = biological target: BuChE (Equus caballus, UniProt P81908); experiment: Butyrylcholinesterase inhibitory activity (Ellman method, modified); format: biochemical
Description: as §2

[10] = trypomastigotes forms, STIB 900 strain
[11] = amastigotes forms, Tulahuen C4 strain
[12] = amastigotes forms, MHOM-ET-67/L82 strain
[13] = intraerythrocytic forms, NF54 strain, read-out: P. falciparum IC50

Chain of AChE (O42275 24-633): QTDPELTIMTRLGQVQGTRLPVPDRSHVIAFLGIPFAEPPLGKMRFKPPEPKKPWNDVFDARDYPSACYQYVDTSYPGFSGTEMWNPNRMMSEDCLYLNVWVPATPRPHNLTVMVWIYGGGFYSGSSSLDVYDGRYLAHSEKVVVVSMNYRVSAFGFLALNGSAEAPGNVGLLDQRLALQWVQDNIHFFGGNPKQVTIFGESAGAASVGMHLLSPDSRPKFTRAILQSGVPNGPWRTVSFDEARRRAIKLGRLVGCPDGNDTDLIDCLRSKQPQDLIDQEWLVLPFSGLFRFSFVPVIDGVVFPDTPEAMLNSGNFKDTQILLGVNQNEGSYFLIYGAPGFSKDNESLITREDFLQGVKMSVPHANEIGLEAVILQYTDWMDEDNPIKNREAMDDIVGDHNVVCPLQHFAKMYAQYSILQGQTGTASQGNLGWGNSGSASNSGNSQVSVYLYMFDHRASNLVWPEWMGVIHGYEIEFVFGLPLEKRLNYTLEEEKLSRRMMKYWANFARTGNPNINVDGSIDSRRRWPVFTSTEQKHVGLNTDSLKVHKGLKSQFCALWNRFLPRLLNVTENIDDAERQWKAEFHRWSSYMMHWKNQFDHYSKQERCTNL
Chain of BuChE (P81908 whole entry): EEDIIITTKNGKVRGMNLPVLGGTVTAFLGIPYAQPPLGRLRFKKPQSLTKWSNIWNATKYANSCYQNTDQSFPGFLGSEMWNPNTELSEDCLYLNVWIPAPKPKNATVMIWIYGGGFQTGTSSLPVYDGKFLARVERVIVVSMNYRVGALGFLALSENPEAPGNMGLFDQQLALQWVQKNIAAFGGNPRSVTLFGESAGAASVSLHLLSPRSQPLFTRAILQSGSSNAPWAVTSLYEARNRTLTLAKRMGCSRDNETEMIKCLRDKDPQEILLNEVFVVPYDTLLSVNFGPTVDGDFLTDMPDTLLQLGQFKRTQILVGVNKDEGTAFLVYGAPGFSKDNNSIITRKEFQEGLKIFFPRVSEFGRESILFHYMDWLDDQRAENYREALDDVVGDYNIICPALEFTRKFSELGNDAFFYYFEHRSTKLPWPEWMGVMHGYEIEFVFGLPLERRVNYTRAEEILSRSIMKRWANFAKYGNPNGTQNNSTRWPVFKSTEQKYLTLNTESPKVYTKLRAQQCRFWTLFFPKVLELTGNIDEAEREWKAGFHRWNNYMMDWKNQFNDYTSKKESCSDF

Structure (SMILES) | IC50 [1, 10] | IC50 [2, 11] | IC50 [3, 12] | IC50 [5] | IC50 [6, 13] | other results
CO[C@@H]1C[C@H]2N3CC[C@@]2(c2cc4c(cc2C3)OCO4)[C@H]2O[C@@H]12 [Augustine (13), Augustine] | 15.1 ± 1.06 µg/mL (≈ 49.9 µM) | 56 ± 0.71 µg/mL (≈ 186 µM) | > 100 µg/mL | > 100 µg/mL | 14.2 ± 0.14 µg/mL (≈ 47.1 µM) | IC50 [4]: 460 nM; IC50 [7]: 600 nM; AChE inhibitory activity (in words) [8]: moderate
O[C@H]1C=C[C@@]23CCN(Cc4cc5c(cc42)OCO5)[C@@H]3C1 [Crinine (10), Crinine] | 18.9 ± 0.78 µg/mL (≈ 69.8 µM) | 57.5 ± 6.86 µg/mL (≈ 212 µM) | > 100 µg/mL | > 100 µg/mL | 30.9 ± 2.19 µg/mL (≈ 114 µM) | 
CO[C@H]1C=C[C@@]23CCN(Cc4cc5c(cc42)OCO5)[C@@H]3C1 [Buphanisine (8), Buphanisine] | 16.5 ± 0.57 µg/mL (≈ 57.8 µM) | 55.5 ± 4.6 µg/mL (≈ 195 µM) | > 100 µg/mL | 72.8 ± 5.02 µg/mL (≈ 255 µM) | 4.28 ± 0.18 µg/mL (≈ 15 µM) | AChE inhibitory activity (in words) [8]: low
CN1CCC23c4cc5c(cc4C4OC(CCC12)C3O4)OCO5 (centres unmarked) [Augustamine (22), Augustamine] | 19.2 ± 2.97 µg/mL (≈ 63.7 µM) | 54 ± 4.53 µg/mL (≈ 179 µM) | > 100 µg/mL | 81.55 ± 0.64 µg/mL (≈ 271 µM) | 20.4 ± 0.21 µg/mL (≈ 67.5 µM) | BuChE inhibitory activity (in words) [9]: did not show any cholinesterase inhibitory activities; AChE inhibitory activity (in words) [8]: did not show any cholinesterase inhibitory activities
Nc1nc(N)nc(Nc2ccc([As]3SCC(CO)S3)cc2)n1 (centres unmarked) [melarsoprol, reference compound] |  |  |  |  |  | IC50 [1]: 0.003 ± 0.001 µg/mL
CO[C@@H]1C[C@@H]2[C@@]3(CC[N@@+]2([O-])Cc2cc4c(cc23)OCO4)[C@H]2O[C@@H]12 [Augustine N-oxide (1), Augustine N-oxide] | 58.9 ± 11.5 µg/mL (≈ 185 µM) | 66.2 ± 11.8 µg/mL (≈ 209 µM) | > 100 µg/mL | > 100 µg/mL | 36.6 ± 4.74 µg/mL (≈ 115 µM) | 
CCCCCCCCCCCCCCCCOP(=O)([O-])OCC[N+](C)(C)C [miltefosine, reference compound] |  |  |  |  |  | IC50 [3]: 0.515 ± 0.06 µg/mL (≈ 1.26 µM)
O=C(Cn1ccnc1[N+](=O)[O-])NCc1ccccc1 [benznidazole, reference compound] |  |  |  |  |  | IC50 ([2]; TULAHUEN): 0.865 ± 0.08 µg/mL (≈ 3.32 µM)
CCN(CC)CCCC(C)Nc1ccnc2cc(Cl)ccc12 (centres unmarked) [chloroquine, reference compound] |  |  |  |  |  | IC50 ([6]; NF54, read-out: P. falciparum IC50): 0.004 ± 0.0007 µg/mL (≈ 0.0125 µM)
CO[C@H]1C=C[C@@]23CC[N@@+]([O-])(Cc4cc5c(cc42)OCO5)[C@@H]3C1 [Buphanisine N-oxide (2), Buphanisine N-oxide] | 55.2 ± 4.31 µg/mL (≈ 183 µM) | 64 ± 1.34 µg/mL (≈ 213 µM) | > 100 µg/mL | > 100 µg/mL | 32.55 ± 0.07 µg/mL (≈ 108 µM) | 
COc1cc([C@@H]2c3cc4c(cc3[C@H](O)[C@H]3COC(=O)[C@H]23)OCO4)cc(OC)c1OC [podophyllotoxin, reference compound] |  |  |  | 0.004 ± 0.0007 µg/mL (≈ 0.00965 µM) |  | 
